Assay results from ChEMBL document CHEMBL4715821, “Discovery of 4-ethoxy-7H-pyrrolo[2,3-d]pyrimidin-2-amines as potent, selective and orally bioavailable LRRK2 inhibitors” (Bioorg Med Chem Lett, 2018).

Experiments:
[1] = biological target: Wee1-like protein kinase (Homo sapiens) (UniProt P30291); test: Inhibition of wild-type human partial length WEE1 (M291 to K575 residues) expressed in bacterial expression system assessed as residual activity at 1 uM by Kinomescan method relative to control
[2] = biological target: Myosin light chain kinase 2, skeletal/cardiac muscle (Homo sapiens) (UniProt Q9H1R3); test: Inhibition of MLCK2 (unknown origin) assessed as residual activity at 1 uM by Kinomescan method relative to control
[3] = biological target: Serine/threonine-protein kinase NLK (Homo sapiens) (UniProt Q9UBE8); test: Inhibition of wild-type human full length NLK (M13 to E527 residues) expressed in bacterial expression system assessed as residual activity at 1 uM by Kinomescan method relative to control
[4] = biological target: Serine/threonine-protein kinase DCLK2 (Homo sapiens) (UniProt Q8N568); test: Inhibition of wild-type human partial length DCAMKL2 (K273 to V664 residues) expressed in bacterial expression system assessed as residual activity at 1 uM by Kinomescan method relative to control
[5] = biological target: Ribosomal protein S6 kinase beta-2 (Homo sapiens) (UniProt Q9UBS0); test: Inhibition of RPS6KB2 (unknown origin) assessed as residual activity at 1 uM by Kinomescan method relative to control
[6] = biological target: Casein kinase I isoform alpha-like (Homo sapiens) (UniProt Q8N752); test: Inhibition of CK1a1L (unknown origin) assessed as residual activity at 1 uM by Kinomescan method relative to control
[7] = biological target: cGMP-dependent protein kinase 1 (Homo sapiens) (UniProt Q13976); test: Inhibition of PKG1beta (unknown origin) assessed as residual activity at 1 uM by Kinomescan method relative to control
[8] = biological target: Casein kinase II subunit alpha' (Homo sapiens) (UniProt P19784); test: Inhibition of CK2a2 (unknown origin) assessed as residual activity at 1 uM by Kinomescan method relative to control
[9] = biological target: Serine/threonine-protein kinase PLK1 (Homo sapiens) (UniProt P53350); test: Inhibition of wild-type human partial length PLK1 (A33 to F325 residues) expressed in mammalian expression system assessed as residual activity at 1 uM by Kinomescan method relative to control
[10] = biological target: Calcium/calmodulin-dependent protein kinase type II subunit gamma (Homo sapiens) (UniProt Q13555); test: Inhibition of wild-type human partial length CAMK2G (R9 to A303 residues) expressed in bacterial expression system assessed as residual activity at 1 uM by Kinomescan method relative to control
[11] = biological target: Tyrosine-protein kinase ABL2 (Homo sapiens) (UniProt P42684); test: Inhibition of wild-type human ABL2 (A248 to G542 residues) expressed in bacterial expression system assessed as residual activity at 1 uM by Kinomescan method relative to control
[12] = Ratio of total drug concentration in brain to blood in Han-Wistar rat at 10 mg/kg, po; type: ADME, organism-based
[13] = biological target: Calcium/calmodulin-dependent protein kinase type II subunit beta (Homo sapiens) (UniProt Q13554); test: Inhibition of wild-type human partial length CAMK2B (M1 to Q380 residues) expressed in bacterial expression system assessed as residual activity at 1 uM by Kinomescan method relative to control
[14] = Unbound fraction in rat blood; type: ADME, tissue-based
[15] = biological target: Mitogen-activated protein kinase kinase kinase 12 (Homo sapiens) (UniProt Q12852); test: Inhibition of wild-type human full length DLK (M1 to P859 residues) expressed in mammalian expression system assessed as residual activity at 1 uM by Kinomescan method relative to control
[16] = biological target: Serine/threonine-protein kinase BRSK2 (Homo sapiens) (UniProt Q8IWQ3); test: Inhibition of wild-type human full length BRSK2 (M1 to L674 residues) expressed in bacterial expression system assessed as residual activity at 1 uM by Kinomescan method relative to control
[17] = biological target: Phosphorylase b kinase gamma catalytic chain, liver/testis isoform (Homo sapiens) (UniProt P15735); test: Inhibition of wild-type human partial length PHKG2 (M1 to W300 residues) expressed in bacterial expression system assessed as residual activity at 1 uM by Kinomescan method relative to control
[18] = biological target: Mitogen-activated protein kinase kinase kinase 5 (Homo sapiens) (UniProt Q99683); test: Inhibition of wild-type human partial length ASK1 (E648 to S964 residues) expressed in bacterial expression system assessed as residual activity at 1 uM by Kinomescan method relative to control
[19] = biological target: CDC7/DBF4 (Cell division cycle 7-related protein kinase/Activator of S phase kinase) (Homo sapiens) (UniProt Q9UBU7+O00311); test: Inhibition of CDC7/DBF4 (unknown origin) assessed as residual activity at 1 uM by Kinomescan method relative to control; type: protein-complex assay
[20] = biological target: Tau-tubulin kinase 1 (Homo sapiens) (UniProt Q5TCY1); test: Inhibition of TTBK1 (unknown origin) assessed as residual activity at 1 uM by Kinomescan method relative to control
[21] = biological target: Fibroblast growth factor receptor 1 (Homo sapiens) (UniProt P11362); test: Inhibition of wild-type human partial length FGFR1 (P357 to V669 residues) expressed in bacterial expression system assessed as residual activity at 1 uM by Kinomescan method relative to control
[22] = biological target: Serine/threonine-protein kinase A-Raf (Homo sapiens) (UniProt P10398); test: Inhibition of ARAF (unknown origin) assessed as residual activity assessed as residual activity at 1 uM relative to control
[23] = biological target: Ephrin type-A receptor 2 (Homo sapiens) (UniProt P29317); test: Inhibition of wild type human partial length EPHA2 (T593 to V891 residues) expressed in bacterial expression system assessed as residual activity at 1 uM by Kinomescan method relative to control
[24] = biological target: Tyrosine-protein kinase Lck (Homo sapiens) (UniProt P06239); test: Inhibition of wild-type human partial length LCK (R207 to P509 residues) expressed in bacterial expression system assessed as residual activity at 1 uM by Kinomescan method relative to control
[25] = biological target: Serine/threonine-protein kinase pim-3 (Homo sapiens) (UniProt Q86V86); test: Inhibition of wild-type human partial length PIM3 (G16 to A317 residues) expressed in bacterial expression system assessed as residual activity at 1 uM by Kinomescan method relative to control
[26] = biological target: Calcium/calmodulin-dependent protein kinase type IV (Homo sapiens) (UniProt Q16566); test: Inhibition of wild-type human partial length CAMK4 (A22 to A322 residues) expressed in bacterial expression system assessed as residual activity at 1 uM by Kinomescan method relative to control
[27] = biological target: Glycogen synthase kinase-3 beta (Homo sapiens) (UniProt P49841); test: Inhibition of wild-type human full length GSK3B (M1 to T433 residues) expressed in mammalian expression system assessed as residual activity at 1 uM by Kinomescan method relative to control
[28] = biological target: Aurora kinase C (Homo sapiens) (UniProt Q9UQB9); test: Inhibition of wild-type human full length AURKC (M1 to S275 residues) expressed in bacterial expression system assessed as residual activity at 1 uM by Kinomescan method relative to control
Chain of Aurora kinase C (Homo sapiens) (Q9UQB9 whole entry, the tested form may be a part): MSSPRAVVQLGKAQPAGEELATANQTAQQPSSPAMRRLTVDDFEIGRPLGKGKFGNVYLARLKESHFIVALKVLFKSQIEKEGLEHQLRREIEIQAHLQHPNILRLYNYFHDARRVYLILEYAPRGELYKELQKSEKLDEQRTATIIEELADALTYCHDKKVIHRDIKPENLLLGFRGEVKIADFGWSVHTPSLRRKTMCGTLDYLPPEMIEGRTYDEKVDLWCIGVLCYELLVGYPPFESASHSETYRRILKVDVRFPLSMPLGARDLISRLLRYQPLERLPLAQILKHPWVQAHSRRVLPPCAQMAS

Chain of Serine/threonine-protein kinase PLK1 (Homo sapiens) (P53350 whole entry, the tested form may be a part): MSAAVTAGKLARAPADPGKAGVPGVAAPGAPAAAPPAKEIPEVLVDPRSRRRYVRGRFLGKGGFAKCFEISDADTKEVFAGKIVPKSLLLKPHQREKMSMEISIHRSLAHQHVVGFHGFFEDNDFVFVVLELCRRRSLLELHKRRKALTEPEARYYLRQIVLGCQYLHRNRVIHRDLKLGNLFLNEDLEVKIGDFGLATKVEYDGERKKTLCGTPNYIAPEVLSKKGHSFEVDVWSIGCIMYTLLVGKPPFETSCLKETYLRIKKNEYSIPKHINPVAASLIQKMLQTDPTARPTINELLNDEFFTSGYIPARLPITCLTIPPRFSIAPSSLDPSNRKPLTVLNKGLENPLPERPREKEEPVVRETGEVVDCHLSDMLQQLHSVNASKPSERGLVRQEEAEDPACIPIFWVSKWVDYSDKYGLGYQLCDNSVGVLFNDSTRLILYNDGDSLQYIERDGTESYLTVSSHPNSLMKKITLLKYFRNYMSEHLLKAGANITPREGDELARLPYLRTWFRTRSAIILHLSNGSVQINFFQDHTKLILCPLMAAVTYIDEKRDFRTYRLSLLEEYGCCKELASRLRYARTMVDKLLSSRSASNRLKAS
Chain of Mitogen-activated protein kinase kinase kinase 5 (Homo sapiens) (Q99683 whole entry, the tested form may be a part): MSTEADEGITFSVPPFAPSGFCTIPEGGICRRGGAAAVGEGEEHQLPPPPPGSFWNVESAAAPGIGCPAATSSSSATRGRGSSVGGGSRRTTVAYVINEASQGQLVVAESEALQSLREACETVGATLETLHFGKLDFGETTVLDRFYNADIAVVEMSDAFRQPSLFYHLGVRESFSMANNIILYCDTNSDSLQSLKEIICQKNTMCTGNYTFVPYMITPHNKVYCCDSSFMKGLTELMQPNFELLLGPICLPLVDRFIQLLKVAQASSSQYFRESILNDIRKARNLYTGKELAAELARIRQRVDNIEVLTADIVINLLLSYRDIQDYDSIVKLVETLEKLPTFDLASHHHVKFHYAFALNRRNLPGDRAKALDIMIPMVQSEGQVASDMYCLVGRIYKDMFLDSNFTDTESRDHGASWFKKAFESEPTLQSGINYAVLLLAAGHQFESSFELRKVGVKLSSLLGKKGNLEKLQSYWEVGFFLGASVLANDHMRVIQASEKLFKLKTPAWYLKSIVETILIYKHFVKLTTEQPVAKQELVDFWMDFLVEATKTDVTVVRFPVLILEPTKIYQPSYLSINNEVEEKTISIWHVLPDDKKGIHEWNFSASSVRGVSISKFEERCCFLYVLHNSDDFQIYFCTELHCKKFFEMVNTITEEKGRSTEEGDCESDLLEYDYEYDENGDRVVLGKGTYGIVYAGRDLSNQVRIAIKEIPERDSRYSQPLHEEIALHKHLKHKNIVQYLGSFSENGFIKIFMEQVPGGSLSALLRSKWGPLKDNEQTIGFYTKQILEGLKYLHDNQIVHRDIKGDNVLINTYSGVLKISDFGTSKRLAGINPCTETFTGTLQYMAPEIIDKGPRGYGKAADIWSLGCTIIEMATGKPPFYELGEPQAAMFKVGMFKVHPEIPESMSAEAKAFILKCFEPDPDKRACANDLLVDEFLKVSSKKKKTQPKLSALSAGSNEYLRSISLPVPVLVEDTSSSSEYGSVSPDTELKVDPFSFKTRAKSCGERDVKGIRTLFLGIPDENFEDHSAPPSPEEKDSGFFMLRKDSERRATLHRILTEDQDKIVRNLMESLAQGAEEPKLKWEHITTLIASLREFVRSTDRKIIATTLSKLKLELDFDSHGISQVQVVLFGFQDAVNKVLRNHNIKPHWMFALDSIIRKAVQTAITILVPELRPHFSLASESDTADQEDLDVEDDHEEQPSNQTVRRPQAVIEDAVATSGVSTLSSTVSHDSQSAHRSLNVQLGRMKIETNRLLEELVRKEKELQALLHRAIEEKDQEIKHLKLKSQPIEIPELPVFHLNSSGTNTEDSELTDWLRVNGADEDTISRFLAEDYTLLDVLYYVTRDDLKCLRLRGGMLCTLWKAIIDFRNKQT
Chain of Calcium/calmodulin-dependent protein kinase type II subunit beta (Homo sapiens) (Q13554 whole entry, the tested form may be a part): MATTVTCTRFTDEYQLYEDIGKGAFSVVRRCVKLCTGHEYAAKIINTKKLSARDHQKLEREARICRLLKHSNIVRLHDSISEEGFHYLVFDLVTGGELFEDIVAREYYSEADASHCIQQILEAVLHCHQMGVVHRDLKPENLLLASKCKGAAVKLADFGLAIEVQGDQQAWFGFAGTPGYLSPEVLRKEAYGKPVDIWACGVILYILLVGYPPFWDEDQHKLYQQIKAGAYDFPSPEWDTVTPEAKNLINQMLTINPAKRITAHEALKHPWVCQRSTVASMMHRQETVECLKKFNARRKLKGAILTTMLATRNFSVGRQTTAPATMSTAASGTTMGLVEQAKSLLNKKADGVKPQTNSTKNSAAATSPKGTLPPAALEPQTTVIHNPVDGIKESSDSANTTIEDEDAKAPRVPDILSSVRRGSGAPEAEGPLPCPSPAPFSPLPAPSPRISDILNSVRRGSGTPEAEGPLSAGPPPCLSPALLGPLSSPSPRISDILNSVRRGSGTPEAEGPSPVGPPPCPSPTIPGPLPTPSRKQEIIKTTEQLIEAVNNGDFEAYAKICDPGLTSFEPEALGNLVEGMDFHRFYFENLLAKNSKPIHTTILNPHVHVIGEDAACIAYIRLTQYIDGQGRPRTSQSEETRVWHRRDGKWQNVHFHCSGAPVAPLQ
Chain of Casein kinase I isoform alpha-like (Homo sapiens) (Q8N752 whole entry, canonical isoform): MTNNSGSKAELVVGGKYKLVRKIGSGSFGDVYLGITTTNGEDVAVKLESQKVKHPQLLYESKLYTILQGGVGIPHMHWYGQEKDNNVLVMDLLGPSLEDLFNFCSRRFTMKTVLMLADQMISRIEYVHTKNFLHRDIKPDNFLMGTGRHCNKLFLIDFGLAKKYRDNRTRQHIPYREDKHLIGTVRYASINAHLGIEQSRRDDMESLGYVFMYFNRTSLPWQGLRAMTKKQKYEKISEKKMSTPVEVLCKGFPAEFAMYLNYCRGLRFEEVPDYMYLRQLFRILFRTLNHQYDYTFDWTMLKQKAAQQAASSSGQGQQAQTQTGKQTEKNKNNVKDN
Chain of Serine/threonine-protein kinase BRSK2 (Homo sapiens) (Q8IWQ3 whole entry, the tested form may be a part, canonical isoform): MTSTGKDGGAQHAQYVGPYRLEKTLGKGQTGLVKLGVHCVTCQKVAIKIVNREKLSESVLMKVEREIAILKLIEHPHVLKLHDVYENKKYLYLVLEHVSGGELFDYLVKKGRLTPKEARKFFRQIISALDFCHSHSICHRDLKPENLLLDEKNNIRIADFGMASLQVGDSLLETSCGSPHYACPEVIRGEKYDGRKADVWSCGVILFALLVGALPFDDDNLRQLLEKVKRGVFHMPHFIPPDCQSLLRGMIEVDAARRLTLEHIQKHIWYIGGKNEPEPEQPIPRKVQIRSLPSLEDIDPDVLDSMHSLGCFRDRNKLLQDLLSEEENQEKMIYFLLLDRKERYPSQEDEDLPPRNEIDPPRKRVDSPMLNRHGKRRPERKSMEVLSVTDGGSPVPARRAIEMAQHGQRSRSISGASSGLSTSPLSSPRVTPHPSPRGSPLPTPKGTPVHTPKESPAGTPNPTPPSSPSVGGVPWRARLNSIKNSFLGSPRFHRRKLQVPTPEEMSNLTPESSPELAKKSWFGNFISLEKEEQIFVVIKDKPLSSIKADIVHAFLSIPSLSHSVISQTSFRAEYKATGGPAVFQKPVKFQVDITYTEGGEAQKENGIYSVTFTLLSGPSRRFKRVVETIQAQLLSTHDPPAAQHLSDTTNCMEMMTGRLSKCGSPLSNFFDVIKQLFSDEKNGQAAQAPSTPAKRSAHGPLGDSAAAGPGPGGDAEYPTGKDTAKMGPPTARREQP
Chain of Ribosomal protein S6 kinase beta-2 (Homo sapiens) (Q9UBS0 whole entry, canonical isoform): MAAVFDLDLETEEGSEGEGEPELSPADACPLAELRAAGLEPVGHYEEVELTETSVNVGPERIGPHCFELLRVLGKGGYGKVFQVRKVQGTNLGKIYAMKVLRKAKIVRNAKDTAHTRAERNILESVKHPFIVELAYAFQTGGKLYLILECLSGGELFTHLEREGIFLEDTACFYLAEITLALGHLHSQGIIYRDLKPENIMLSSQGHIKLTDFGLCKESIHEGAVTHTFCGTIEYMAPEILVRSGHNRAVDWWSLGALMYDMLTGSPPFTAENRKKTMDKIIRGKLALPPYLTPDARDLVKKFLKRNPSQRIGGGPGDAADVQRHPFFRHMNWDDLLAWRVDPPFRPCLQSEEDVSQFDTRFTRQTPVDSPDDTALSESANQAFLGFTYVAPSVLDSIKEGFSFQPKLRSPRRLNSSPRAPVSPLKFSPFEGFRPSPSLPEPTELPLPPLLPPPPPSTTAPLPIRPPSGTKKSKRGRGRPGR

`CCOc1nc(Nc2ccc(C(=O)N3CCOCC3)cc2OC)nc2[nH]ccc12` showed an Activity [1] of 98.3%, an Activity [2] of 95.6% and an Activity [3] of 94.5%. It also gave an Activity [4] of 93.8%, an Activity [5] of 98.9% and an Activity [6] of 95%. For the same molecule, the Activity [7] was 90.3%, the Activity [8] was 86.1% and the Activity [9] was 87.8%. The Activity [10] was 121%, the Activity [11] was 89.4% and the Kp [12] was 0.24. The Activity [13] was 92.6%, the fraction unbound [14] was 0.032 and the Activity [15] was 93.9%. The Activity [16] was 88.8%, the Activity [17] was 90.6% and the Activity [18] was 92.2%. It also gave an Activity [19] of 102%, an Activity [20] of 103% and an Activity [21] of 90.7%. The Activity [22] was 95.9%, the Activity [23] was 106% and the Activity [24] was 80.4%. It also gave an Activity [25] of 99.9%, an Activity [26] of 90.6% and an Activity [27] of 95.9%. The Activity [28] was 97.3%.
